A short description of data set [1]: MTT assay (cytotoxicity), MCF-7 cells. The note with it: human, 72 h treatment, Table 6.1. The class given is cell-based. The procedure:
(§1) MTT assays: LNCaP, 22Rv1, Du145, H1975, A549, MB231 and MCF-7 cells are maintained in RPMI 1640 supplemented with 10% FBS. Cells were seeded at a density of 6-7×10^3 cells per well in 96-well plates. After overnight incubation, cells in fresh RPMI 1640 supplemented with 10% FBS were exposed to DMSO vehicle control or test compounds at designated concentrations for 72 h. Viable cells were evaluated by MTT assays. Experiments were performed in triplicate and repeated at least twice.
For orientation: Tetrazolium dyes change colour on reduction, which living cells bring about.

A short description of data set [2]: MTT assay (cytotoxicity), H1975 cells. The class given is cell-based. The note with it: human, 72 h treatment, Table 6.1. The procedure:
as §1

In a further data set the test system is VP16-AR(507-919). The data set can be described thus: VP16-AR(507-919) (NTD-deleted) PSA-luc reporter assay. The note with it: 10 nM DHT, 24 h; PC3 or HEK293 cells. (In general: Reporter assays use an easily measured gene product as a stand-in for the process of interest.)
The nature of data set [3]: MTT assay (cytotoxicity), MB231 cells. The note with it: human, 72 h treatment, Table 6.1. Format: cell-based. The procedure: as §1
A short description of data set [4]: MTT assay (72 h), liver hepatocellular carcinoma cell line of Table 6.1. Format: cell-based. The note with it: human, HepG2 cells (liver hepatocellular carcinoma), 72 h treatment, read-out: Cytotoxicity (IC50, μM) HepG2.
Data set [5] can be described thus: MTT assay (cytotoxicity), 22Rv1 cells. The note with it: human, 22Rv1 cells. The class given is cell-based. The essentials: (§2)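 72 h continuous drug exposure, RPMI 1640/10% FBS, MTT endpoint; DMSO vehicle control.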
Data set [6] can be described thus: MTT assay (cytotoxicity), A549 cells. The class given is cell-based. The note with it: human, 72 h treatment, Table 6.1. As to the method: as §1
The next data set has as its target T1, AR-v7 in LNCaP cells (Homo sapiens, UniProt P10275).
T1 sequence (P10275 1-644 isoform P10275-3): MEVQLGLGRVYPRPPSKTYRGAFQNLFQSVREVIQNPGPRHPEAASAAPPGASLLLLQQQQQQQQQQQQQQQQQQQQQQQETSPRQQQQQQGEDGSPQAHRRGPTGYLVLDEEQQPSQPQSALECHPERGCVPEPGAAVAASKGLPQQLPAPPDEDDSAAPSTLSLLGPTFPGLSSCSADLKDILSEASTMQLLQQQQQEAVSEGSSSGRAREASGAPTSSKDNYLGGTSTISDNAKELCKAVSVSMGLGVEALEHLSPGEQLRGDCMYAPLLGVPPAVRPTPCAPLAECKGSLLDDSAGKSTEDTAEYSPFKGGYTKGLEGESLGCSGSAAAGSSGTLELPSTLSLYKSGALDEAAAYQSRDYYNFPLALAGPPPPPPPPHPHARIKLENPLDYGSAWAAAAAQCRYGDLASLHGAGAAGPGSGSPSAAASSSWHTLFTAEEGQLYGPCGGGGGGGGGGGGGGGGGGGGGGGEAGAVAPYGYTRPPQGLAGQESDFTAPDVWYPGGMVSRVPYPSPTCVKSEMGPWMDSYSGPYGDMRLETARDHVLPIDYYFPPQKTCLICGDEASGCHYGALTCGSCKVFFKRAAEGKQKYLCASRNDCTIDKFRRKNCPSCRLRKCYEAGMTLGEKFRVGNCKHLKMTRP
The data set is described as follows: PSA-luc reporter assay in LNCaP cells transiently transfected with pIRES-AR-v7. The note with it: 24 h.

A further data set has as its system 22Rv1 cells. The data set is described as follows: Western blot analysis of apoptosis in 22Rv1 cells. The class given is cell-based. The note with it: phenol red-free medium+10% CS-FBS, 24 h. The source says: A) The 22Rv1 cells express substantial level of AR-Vs, which include AR-V7 and other AR variants lacking the LBD. The ARs were probed by N-terminal directed AR antibody (N20, Santa Cruz); B) The 22Rv1 cells were androgen-starved (in phenol red-free medium+10% CS-FBS) for 3 days to ensure the full-length AR expressed in 22Rv1 are not activated. The 22Rv1 cells were subsequently co-transfected with PSA-luc and pRL-TK plasmids. […] Cells in phenol red-free medium+10% CS-FBS were exposed to DMSO or compounds for 24 h and harvested for Western blot analysis.
For orientation: In western blotting, separated proteins are transferred to a membrane and probed.

The next data set concerns LNCaP cells. The data set can be described thus: Western blot analysis of apoptosis in LNCaP cells. The class given is cell-based. The note with it: whole medium, 24 h. The procedure: Experiments were in duplicate and repeated three times. […] LNCaP cells in whole medium were exposed to DMSO vehicle control or compounds for 24 h.
Data set [7] is described as follows: MTT assay (cytotoxicity), DU145 cells. Format: cell-based. The note with it: human, DU145 cells, Table 4.1. The essentials: as §2

Procedure for AR-v7 in LNCaP cells: NT, LNCaP cells were transiently transfected with pIRES vector, PSA-luc and pRL-TK. […] Cells were then transiently transfected with PSA-Luc and pRL-TK and exposed to DMSO or compounds for 24 h, in triplicate.

Regarding `O=C(Nc1cccc(C(F)(F)F)c1)Nc1ccc(NC(=O)c2ccccc2F)c(C(F)(F)F)c1` [Compound 746], the IC50 (as a rule, the concentration that inhibits the measured activity by half) at 72 h in data set [1] came out at 2.5 µM; in data set [2] it was 2.5 µM; in [3], 4.6 µM; in data set [4], 1.2 µM; in [5] (72 h treatment, Table 6.1), 2.2 µM; in data set [6], 2.4 µM. Moreover, the “inhibition of DHT-induced activation of VP16-AR(507-919) (PSA-luc)” value in the data set on VP16-AR(507-919) was “inactive”. The “activity in LNCaP cells with forced expression of AR-v7 (PSA-luc)” value at AR-v7 in LNCaP cells was “remain active”.
For `N#Cc1ccc(NC(=O)Nc2cccc(C(F)(F)F)c2)cc1C(F)(F)F` [Compound 467], the “apoptosis in 22Rv1 cells” value in the data set with 22Rv1 cells was “induced apoptosis”. Also, the “apoptosis in LNCaP cells” value in the data set with LNCaP cells is “induced apoptosis”.
As for `O=C(N/C=C/c1cccc(C(F)(F)F)c1)Nc1ccncn1` [Compound 562], the melting point (as a rule, the temperature, or range, at which the solid turns liquid) fell in the range of 213 to 215 °C. Further, the “inhibition of DHT-induced activation of VP16-AR(507-919) (PSA-luc)” value in the data set with VP16-AR(507-919) is “inactive”. At AR-v7 in LNCaP cells, the “activity in LNCaP cells with forced expression of AR-v7 (PSA-luc)” value is on record as “remain active”.
For `O=C(Nc1ccc(Br)nc1)Nc1cc(C(F)(F)F)cc(C(F)(F)F)c1` [Compound 566], the IC50 at 72 h in [5] (72 h, Table 4.1) amounted to 1.1 µM; in [7], 1.7 µM.
For `O=C(Nc1cccc(C(F)(F)F)c1)Nc1ccc([N+](=O)[O-])c(C(F)(F)F)c1` [Compound 442], in the data set with 22Rv1 cells, the “apoptosis in 22Rv1 cells” value is “induced apoptosis”. In addition, the “apoptosis in LNCaP cells” value in the data set with LNCaP cells was “induced apoptosis”.

The values above are taken from patent US20170273922A1, “UREA AND BIS-UREA BASED COMPOUNDS AND ANALOGUES THEREOF USEFUL IN THE TREATMENT OF ANDROGEN RECEPTOR MEDIATED DISEASES OR DISORDERS” (THE ROYAL INSTITUTION FOR THE ADVACEMENT OF LEARNING/MCGILL …, priority 2014, published 2017).
